≈ marks a conversion by molar mass, not a printed value.
Experiments:
[1] = target: T1, Bifunctional epoxide hydrolase 2 (Homo sapiens, UniProt P34913); assay: Inhibition of human recombinant soluble epoxide hydrolase using cyano(6-methoxy-naphthalen-2-yl)methyl-trans-[(3-phenyloxiran-2-yl)methyl]carbonate as substrate after 5 mins by fluorescence assay
T1 sequence (P34913 whole entry): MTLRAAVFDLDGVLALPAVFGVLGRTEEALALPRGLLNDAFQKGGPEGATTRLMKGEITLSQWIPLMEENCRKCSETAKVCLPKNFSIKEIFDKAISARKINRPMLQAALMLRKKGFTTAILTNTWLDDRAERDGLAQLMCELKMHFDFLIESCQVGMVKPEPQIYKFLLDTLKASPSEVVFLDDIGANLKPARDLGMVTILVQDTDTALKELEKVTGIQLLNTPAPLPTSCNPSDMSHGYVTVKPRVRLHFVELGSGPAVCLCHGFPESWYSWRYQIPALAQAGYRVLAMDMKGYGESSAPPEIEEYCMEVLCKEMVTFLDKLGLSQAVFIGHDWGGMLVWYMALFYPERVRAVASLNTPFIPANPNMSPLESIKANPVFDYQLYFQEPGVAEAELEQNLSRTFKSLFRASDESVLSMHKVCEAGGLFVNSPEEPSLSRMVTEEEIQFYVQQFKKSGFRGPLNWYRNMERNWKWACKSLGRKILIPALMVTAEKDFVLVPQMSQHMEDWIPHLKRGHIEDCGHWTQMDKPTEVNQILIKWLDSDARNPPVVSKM

[2] = Solubility of the compound in sodium phosphate buffer at pH 7.4 at 25 +/- 1 degC; assay type: physicochemical
[3] = target: T1, Bifunctional epoxide hydrolase 2; assay: Inhibition of soluble epoxide hydrolase (unknown origin)

Compound | IC50 [1] [nM] | solubility [2] [µg/mL] | IC50 [3] [nM]
O=C(Nc1ccc(C(=O)N2CCNCC2)cc1)NC12CC3CC(CC(C3)C1)C2 | 67.1 | 1960 (≈ 5120 µM) | –
O=C(NCC[C@H]1CN[C@@H](Cc2ccccc2)CN1)NC12CC3CC(CC(C3)C1)C2 | – | – | 1370
O=C(Nc1cccc(C(=O)N2CCNCC2)c1)NC12CC3CC(CC(C3)C1)C2 | 133 | 1150 (≈ 3010 µM) | –
CC(=O)N1CCN(C(=O)c2cccc(NC(=O)NC34CC5CC(CC(C5)C3)C4)c2)CC1 | 46.3 | 890 (≈ 2100 µM) | –
CC(=O)N1CCN(CCCOc2ccc(NC(=O)NC34CC5CC(CC(C5)C3)C4)c3cccnc23)CC1 | 142 | 130 (≈ 257 µM) | –
O=C(NC1CCN(C(=O)CCC(=O)N2CCNCC2)CC1)NC12CC3CC(CC(C3)C1)C2 | 77.3 | 8000 (≈ 18000 µM) | –
O=C(NC12CC3CC(CC(C3)C1)C2)N1CCNCC1 | 100000 | – | –
CC(=O)N1CCN(C(=O)NC23CC4CC(CC(C4)C2)C3)CC1 | 321 | – | –
CC(C)(C)OC(=O)N1CCN(C(=O)NC23CC4CC(CC(C4)C2)C3)CC1 | 490 | – | –
CN1CCN(C(=O)NC23CC4CC(CC(C4)C2)C3)CC1 | 63.7 | – | –

The remaining molecules from weak to strong by IC50 [1], led by results:

IC50 [1] [nM] | solubility [2] [µg/mL] | IC50 [3] [nM] | Compound
44.7 | – | – | CC(=O)N1CCN(C(=O)CCC(=O)N2CCC(NC(=O)NC34CC5CC(CC(C5)C3)C4)CC2)CC1
41.8 | 130 (≈ 282 µM) | – | CS(=O)(=O)N1CCN(C(=O)c2cccc(NC(=O)NC34CC5CC(CC(C5)C3)C4)c2)CC1
18.8 | 470 (≈ 861 µM) | – | CC(C)(C)OC(=O)N1CCN(C(=O)CCC(=O)N2CCC(NC(=O)NC34CC5CC(CC(C5)C3)C4)CC2)CC1
9 | 530 (≈ 1250 µM) | – | CC(=O)N1CCN(C(=O)c2ccc(NC(=O)NC34CC5CC(CC(C5)C3)C4)cc2)CC1
7.3 | 210 (≈ 435 µM) | – | CC(C)(C)OC(=O)N1CCN(C(=O)c2cccc(NC(=O)NC34CC5CC(CC(C5)C3)C4)c2)CC1
6.8 | 150 (≈ 266 µM) | – | CC(C)(C)OC(=O)N1CCN(CCCOc2ccc(NC(=O)NC34CC5CC(CC(C5)C3)C4)c3cccnc23)CC1
1 | 860 (≈ 1870 µM) | – | CS(=O)(=O)N1CCN(C(=O)c2ccc(NC(=O)NC34CC5CC(CC(C5)C3)C4)cc2)CC1
0.6 | 160 (≈ 342 µM) | – | CC(=O)N1CCN(CCCCOc2cccc(NC(=O)CC34CC5CC(CC(C5)C3)C4)c2)CC1
0.5 | 500 (≈ 1040 µM) | – | CC(C)(C)OC(=O)N1CCN(C(=O)c2ccc(NC(=O)NC34CC5CC(CC(C5)C3)C4)cc2)CC1
0.5 | 170 (≈ 337 µM) | – | CS(=O)(=O)N1CCN(CCCCOc2cccc(NC(=O)CC34CC5CC(CC(C5)C3)C4)c2)CC1
0.4 | 180 (≈ 342 µM) | – | CC(C)(C)OC(=O)N1CCN(CCCCOc2cccc(NC(=O)CC34CC5CC(CC(C5)C3)C4)c2)CC1

From ChEMBL document CHEMBL3217451, “Structure-based optimization of the piperazino-containing 1,3-disubstituted ureas affording sub-nanomolar inhibitors of soluble epoxide hydrolase” (Medchemcomm, 2012)
